Test results as given in US7018796B2, “Preincubation assay methods” (Shionogi & Co., Ltd., priority 2000, dated 2006).
Entries after “also recorded” stand apart in the source; their conditions may differ.

Key:
[1] = biological target: T1, HCV RNA-dependent RNA polymerase (Hepatitis C virus genotype 1a, UniProt P27958); test: Prior assay method without pre-incubation, 3H-UTP (Reference 1); format: biochemical; settings: no pre-incubation
T1 construct: HCV RNA-dependent RNA polymerase is encoded in the NS5B (nonstructural protein 5B) region of HCV; made in house; host or cells: insect cells or E. coli
Description: A HCV RNA-dependent RNA polymerase, template RNA, primer RNA, substrate RNA, Mg ion (Mg^2+) and a test substance are mixed at the same time to start an enzyme reaction and measure an enzyme activity. It can be known whether a test substance activates or inhibits an activity of a HCV RNA-dependent RNA polymerase by comparing the above value of an enzyme activity with that measured in the absence of a test substance. IC50 value can be used, which is a concentration of a test substance able to inhibit 50% of an enzyme activity. For example, one of prior methods can be carried out in accordance with the later described Reference 1.
A cDNA encoding HCV RNA-dependent RNA polymerase was made by use of HCV positive human plasma and HCV RNA-dependent RNA polymerase was expressed using the insect cells or the E. coli. HCV RNA-dependent RNA polymerase in the cell extract was purified by use of an anion exchange chromatography, a heparin affinity chromatography, a polyU affinity chromatography, a cation exchange chromatography and gel filtration chromatography. The purification was performed at 4° C. and Tris buffer (pH 7.5) containing ethylenediaminetetraacetic acid (1 mM), dithiothreitol (10 mM) and glycerol (20%) was used. The enzyme purified was stored at 4° C. until use for the assays.
The prior assay method using HCV RNA-dependent RNA polymerase • 1) The buffer I ^1) (10.5 μl) containing Tris-HCl (100 mM, pH 7.5), MgCl2 (25 mM), dithiothreitol (5 mM), KCl (125 mM) and ethylenediaminetetraacetic acid (5 mM) was transferred to a polypropylene tube and then poly(A)^2) solution (100 μg/ml, 10.5 μl), oligo(U)12 ^3) solution (1 μg/ml, 10.5 μl) and water (8 μl) were added into the tube. After mixing, the tube was cooled on ice. • 2) Next, HCV RNA-dependent RNA polymerase (10.5 μl) cooled on ice was added into the tube and mixed. • 3) The mixture cooled (50 μl) was added to a test compound (5.26 μl/well) dissolved with dimethyl sulfoxide or water in a well of a 96-wells microtiter plate. • 4) Additionally, the buffer II (10.6 μl) containing Tris-HCl (100 mM, pH 7.5), MgCl2 (25 mM), dithiothreitol (5 mM), KCl (125 mM), ethylenediaminetetraacetic acid (5 mM) and UTP ^4) (2.1 μM, 1 μCi ^3H-UTP), was mixed with water (39.4 μl). The mixture (50 μl) was added into the well and mix, and then the enzyme reaction was performed at 25° C. for 30 min. • 5) After enzyme reaction for 30 min, the enzyme reaction was stopped by adding disodium ethylenediaminetetraacetic acid (50 mM, 50 μl). • 6) By use of the cell-harvester, all volume of the enzyme reaction sample which was described in 5) was transferred onto a DEAE-filtermat and washed twice for 10 see with sodium phosphate buffer (0.25 M, pH 7.0) and once for 10 sec with de-ionized water. • 7) The DEAE-filtermat was dried at 95° C. for 15 min and transferred into a sample bag with liquid scintillater (10 ml), and then a sample bag was sealed. • 8) The radio activity was measured by a scintillation counter. • 9) The inhibitory rate was calculated from the radioactivity measured (ccpm) as follows. [formula]

[2] = biological target: T1, HCV RNA-dependent RNA polymerase; test: Time course of HCV RdRp inhibitory effect against pre-incubation time and temperature (Examinations 3 and 4); format: biochemical; settings: for Influence of pre-incubation on inhibitory effect at 2° C., 20° C. and 25° C. (FIG. 6, FIG. 7): pre-incubation at any temperature; for Influence of pre-incubation time on inhibitory effect (FIG. 5): pre-incubation time 0 to 180 min
Description: In the screening for HCV RNA-dependent RNA polymerase inhibitor, there is a dissociation of inhibitory effect as a different point between an assay method of the present invention and a prior assay method. […] Therefore, the influence of pre-incubation on the inhibitory value of enzyme inhibitor was determined. Using several compounds which evaluated RdRp inhibition in the prior assay method, the time course of HCV RdRp inhibitory effect was determined for 0 min, 15 min, 30 min, 45 min, 60 min, 90 min, 120 min, 150 min and 180 min as a pre-incubation time (FIG. 5).
Influence of pre-incubation on inhibitory value of enzyme inhibitor was determined in Examination 3. The temperature of pre-incubation in Examination 3 was changed and the time course of inhibitory effect was determined at variant temperature of pre-incubation.
Using several compounds, 3′-dUTP, compound I-1 and compound C, which evaluated RdRp inhibition in the prior assay method, the time course of HCV RdRp inhibitory effect was determined at 2° C., 20° C. and 25° C. as a pre-incubation temperature for 0 min, 20 min, 40 min, 60 min, 80 min, and 100 min as a pre-incubation time (FIG. 6, FIG. 7, FIG. 8).

[3] = prior method, I-1 0.5 μg/ml, 3′-dUTP 0.7 μM, A 100 μg/ml, B 50 μg/ml, C 25 μg/ml

T1 sequence (P27958 2421-3011): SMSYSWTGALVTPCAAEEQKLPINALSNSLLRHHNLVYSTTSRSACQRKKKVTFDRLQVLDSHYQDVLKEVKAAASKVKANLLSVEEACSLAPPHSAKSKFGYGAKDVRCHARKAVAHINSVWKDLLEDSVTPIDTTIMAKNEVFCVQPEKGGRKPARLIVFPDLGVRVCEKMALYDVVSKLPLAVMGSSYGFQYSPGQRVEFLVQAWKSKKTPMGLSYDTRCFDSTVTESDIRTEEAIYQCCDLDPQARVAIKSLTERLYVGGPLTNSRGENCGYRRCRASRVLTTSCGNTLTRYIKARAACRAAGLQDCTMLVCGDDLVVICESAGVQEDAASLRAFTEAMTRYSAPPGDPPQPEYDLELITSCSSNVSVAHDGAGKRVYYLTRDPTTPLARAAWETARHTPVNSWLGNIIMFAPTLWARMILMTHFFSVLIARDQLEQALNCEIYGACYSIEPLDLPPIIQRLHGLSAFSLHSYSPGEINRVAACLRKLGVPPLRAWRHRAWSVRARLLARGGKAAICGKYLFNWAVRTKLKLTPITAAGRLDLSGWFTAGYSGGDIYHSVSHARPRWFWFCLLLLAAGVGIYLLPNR

Row | Compound | inhibition at 0.5 µg/mL ([1]; prior method, I-1 0.5 μg/ml, 3′-dUTP 0.7 μM, A 100 μg/ml, B 50 μg/ml, C 25 μg/ml, read-out: Inhibitory rate (Table 3)) [%] | Influence of pre-incubation on inhibitory effect at 2° C., 20° C. and 25° C. (FIG. 6, FIG. 7) ([2]; 0 to 100 min) | Inhibitory rate (Table 3) [1, 3] [%] | Influence of pre-incubation time on inhibitory effect (FIG. 5) [2] | Judgement in the prior method (positive / negative) [1] | Influence of pre-incubation on inhibitory effect at 2° C. (FIG. 8) ([2]; pre-incubation temperature 2° C., 0 to 100 min) | Influence of pre-incubation on inhibitory effect at 20° C. and 25° C. (FIG. 8) ([2]; pre-incubation temperature 20° C. and 25° C., 0 to 100 min)
1 | O=C(O)/C(O)=C/C(=O)c1cccc(O)c1 [Compound I-1] | 62 | not influence by pre-incubation at any temperatures | – | – | – | – | –
2 | O=c1ccn([C@@H]2O[C@H](COP(=O)(O)OP(=O)(O)OP(=O)(O)O)C[C@H]2O)c(=O)[nH]1 [3′-dUTP, 3′-deoxyuridine triphosphate] | – | not influence by pre-incubation at any temperatures | 68 | not a large influence by pre-incubation | – | – | –
3 | Cc1oc(-c2ccccc2)nc1CCOc1ccc(C=C2C(=O)NC(=O)NC2=O)cc1 [Compound A] | – | – | 50 | inhibitory effect decreased with increasing pre-incubation time | positive data | – | –
4 | CCCCC1=N/C(=C\c2ccccc2OCC(=O)O)C(=O)N1Cc1ccc(-c2ccccc2-c2nnn[nH]2)cc1 [Compound C] | – | – | 67 | inhibitory effect decreased with increasing pre-incubation time | positive data; also recorded: positive result | did not appear clear influence | inhibitory effect decreased greatly
5 | O=C1NC(=O)C(=Cc2ccc(OCCc3cccc4ccccc34)cc2)C(=O)N1 [Compound B] | – | – | 63 | inhibitory effect decreased with increasing pre-incubation time | positive data | – | –
